Reference: the supplement of paper PMC10307832

How the values were obtained:
Assay in all cases: relative viability (nuclei count vs DMSO), 5 days (fraction); higher = more cells survive
[1] = compound: O=C(NCCCNc1nc(Nc2cccc(NC(=O)N3CCCC3)c2)ncc1I)c1cccs1 [BX 795] + CC(=O)c1c(C)c2cnc(Nc3ccc(N4CCNCC4)cn3)nc2n(C2CCCC2)c1=O [Palbociclib] (partner 0.5 µM)
Outline: (§1)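 Lung cancer cell lines were seeded in 1536-well plates and dosed by pin tool the next day, with either a single drug or a fixed anchor-drug dose combined with five library-drug doses (not always all listed) spaced in √10 steps. Five days later, one step fixed the cells and stained their nuclei (final 0.05% Triton X-100, 1% formaldehyde, 1 ug/ml Hoechst), and nuclei were counted on 4× images. Relative viability is the nuclei count in treated wells divided by the count in vehicle wells, and each value is the median of duplicate plates.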

[2] = compound: O=C(NCCCNc1nc(Nc2cccc(NC(=O)N3CCCC3)c2)ncc1I)c1cccs1 [BX 795] + COc1cccc2cc(-c3nc([C@H]4CC[C@H](C(=O)O)CC4)n4ncnc(N)c34)[nH]c12 [OSI-027] (partner 0.5 µM)
Outline: as §1

[3] = compound: O=C(NCCCNc1nc(Nc2cccc(NC(=O)N3CCCC3)c2)ncc1I)c1cccs1 [BX 795] + CS(=O)(=O)N1CCN(Cc2cc3nc(-c4cccc5[nH]ncc45)nc(N4CCOCC4)c3s2)CC1 [Pictilisib] (partner 1 µM)
Outline: as §1

[4] = compound: O=C(NCCCNc1nc(Nc2cccc(NC(=O)N3CCCC3)c2)ncc1I)c1cccs1 [BX 795] + N=C(N)NC(=N)NCCc1ccccc1 [Phenformin] (partner 250 µM)
Outline: as §1

[5] = compound: O=C(NCCCNc1nc(Nc2cccc(NC(=O)N3CCCC3)c2)ncc1I)c1cccs1 [BX 795] + CCNC(=O)c1noc(-c2cc(C(C)C)c(O)cc2O)c1-c1ccc(CN2CCOCC2)cc1 [Luminespib] (partner 0.01 µM)
Outline: as §1

| Cell Line | relative viability ([1]; first compound 0.04 µM) | relative viability ([1]; first compound 0.1265 µM) | relative viability ([1]; first compound 0.4 µM) | relative viability ([1]; first compound 1.265 µM) | relative viability ([2]; first compound 0.04 µM) | relative viability ([2]; first compound 0.1265 µM) | relative viability ([2]; first compound 0.4 µM) | relative viability ([2]; first compound 1.265 µM) | relative viability ([3]; first compound 0.04 µM) | relative viability ([3]; first compound 0.1265 µM) | relative viability ([3]; first compound 0.4 µM) | relative viability ([3]; first compound 1.265 µM) | relative viability ([4]; first compound 0.04 µM) | relative viability ([4]; first compound 0.1265 µM) | relative viability ([4]; first compound 0.4 µM) | relative viability ([4]; first compound 1.265 µM) | relative viability ([5]; first compound 0.04 µM) | relative viability ([5]; first compound 0.1265 µM) | relative viability ([5]; first compound 0.4 µM) | relative viability ([5]; first compound 1.265 µM) |
| --- | --- | --- | --- | --- | --- | --- | --- | --- | --- | --- | --- | --- | --- | --- | --- | --- | --- | --- | --- | --- |
| HCC-78 | 0.56 | 0.437 | 0.49 | 0.433 | 0.363 | 0.369 | 0.393 | 0.363 | 0.236 | 0.206 | 0.154 | 0.218 | 0.853 | 0.656 | 0.817 | 0.708 | – | – | – | – |
| HCC-44 | 0.997 | 0.968 | 1.05 | 1.07 | 0.483 | 0.472 | 0.564 | 0.45 | 0.55 | 0.672 | 0.681 | 0.594 | 0.157 | 0.162 | 0.222 | 0.153 | 0.98 | 1.37 | 0.497 | 0.58 |
| A549 | – | – | – | – | – | – | – | – | 0.51 | 0.47 | 0.449 | 0.134 | 0.23 | 0.15 | 0.271 | 0.112 | – | – | – | – |
| HCC-15 | 0.766 | 0.712 | 0.663 | 0.616 | 0.627 | 0.755 | 0.717 | 0.474 | 0.71 | 0.779 | 0.968 | 0.744 | 0.423 | 0.485 | 0.482 | 0.283 | 0.346 | 0.298 | 0.298 | 0.408 |
| H3255 | 0.323 | 0.276 | 0.314 | 0.316 | 0.581 | 0.605 | 0.629 | 0.51 | 0.533 | 0.475 | 0.498 | 0.428 | 0.371 | 0.354 | 0.406 | 0.363 | 0.891 | 0.852 | 0.979 | 0.891 |
| CAL-12T | 0.473 | 0.55 | 0.298 | 0.218 | 0.726 | 0.834 | 0.669 | 0.186 | 0.543 | 0.452 | 0.368 | 0.32 | 0.599 | 0.591 | 0.447 | 0.212 | 0.534 | 0.488 | 0.194 | 0.181 |
| NCI-H441 | 0.22 | 0.204 | 0.243 | 0.184 | 0.731 | 0.57 | 0.891 | 0.399 | 0.609 | 0.503 | 0.666 | 0.37 | 0.986 | 0.831 | 0.983 | 0.531 | 0.323 | 0.297 | 0.333 | 0.278 |
| HCC-366 | 0.477 | 0.362 | 0.289 | 0.415 | 1.08 | 0.881 | 0.644 | 0.444 | 0.145 | 0.137 | 0.104 | 0.0928 | 0.622 | 0.629 | 0.602 | 0.583 | – | – | – | – |
| NCI-H1437 | 0.336 | 0.34 | 0.344 | 0.358 | 0.879 | 0.89 | 0.834 | 0.847 | 0.488 | 0.411 | 0.417 | 0.55 | 0.279 | 0.336 | 0.328 | 0.257 | 1.13 | 1.14 | 1.17 | 1.12 |
